Test results published in patent US20210183469A9, “COMPUTATIONAL PLATFORM FOR IN SILICO COMBINATORIAL SEQUENCE SPACE EXPLORATION AND ARTIFICIAL EVOLUTION OF PEPTIDES” (priority 2018, published 2021).
No end group written: not given here.

Experiments:
[1] = system: human erythrocytes; assay: Hemolytic assay; conditions: 1 h at 37° C., 100% of hemolysis was not observed
Description: (§2) Fresh human venous blood was collected from volunteers in Vacutainer collection tubes containing sodium heparin as an anticoagulant (BD Biosciences, Franklin Lakes, N.J.). The blood was centrifuged at 1500 rpm and the serum was removed and the blood cells were replaced and washed 3 times with the same volume of sterile NaCl 0.85% solution. Concentrated red blood cells were diluted tenfold in NaCl 0.85% solution and then exposed at two-fold dilutions of peptides for 1 h at 37° C., at identical concentrations used for antimicrobial assays, in the ratio of 1:1 (v/v), achieving a final volume of 100 uL. The assay was carried out in 96-well polypropylene microtiter plates. The positive control wells contained 1% of Triton X-100, representing 100% cell lysis, and negative control wells contained sterile saline. Hemoglobin release was monitored chromogenically at 546 nm using a microplate reader.

[2] = system: bioluminescent engineered P. aeruginosa strain H1001; assay: Antimicrobial activity by bioluminescence assay (SPOT-synthesized peptides); format: cell-based, Pseudomonas aeruginosa; conditions: SPOT-synthesized unpurified crude peptide (~70% purity)
Description: A peptide array composed of 20 peptides (15 guavanins, 4 Pg-AMP1 fragments and magainin 2) was designed and synthesized by Kinexus Bioinformatics Corporation (Vancouver, BC). Peptides were produced in a standard mass of 80 μg by using cellulose support in SPOT technology, as previously described by Winkler et al. Methods Mol. Biol. 2009; 570: 157-74. The crude synthetic peptides were obtained from cellulose membrane discs that had already been treated with ammonia gas to release the peptides from the membrane. Peptides were then dissolved overnight in distilled water and subsequently evaluated for their biological activities, as described below.
The antimicrobial activity of the synthesized peptides was evaluated against an engineered luminescent Pseudomonas aeruginosa H1001 strain in 96-well microplates, as described previously with a few modifications (Hilpert & Hancock, Nat. Protoc. 2007; 2(7): 1652-60). […] Luminescence was measured on a Tecan […]luor Plus Microplate Reader (Tecan US, Morrisville, N.C.). The antimicrobial activity was evaluated by the ability of the peptides to reduce the luminescence of P. aeruginosa-lux strain compared to untreated cells. […]

[3] = in vitro; conditions: human
Description: as §2

[4] = system: Listeria ivanovii Li4pVS2
Description: Staphylococcus aureus ATCC 25923, Enterococcus faecalis ATCC 29212, Escherichia coli ATCC 25922, Pseudomonas aeruginosa ATCC 27853, Acinetobacter baumannii ATCC 19606 and Klebsiella pneumoniae ATCC 13883 were cultured in Lysogeny Broth (LB). The bacteria Streptococcus pyogenes ATCC 19615 and Listeria ivanovii Li 4pVS2 were cultured in Brain Heart Infusion (BHI) broth, whereas Candida species (C. albicans ATCC 90028 and C. parapsilosis ATCC 22019) were cultured in Yeast Peptone Dextrose (YPD) medium. Logarithmic phase culture of bacteria and yeasts were centrifuged and suspended in MH (Mueller Hinton) broth to an A630 of 0.01 (˜10^6 CFU·mL^−1), except for S. pyogenes, L. ivanovii and E. faecalis that were suspended in their respective growth medium. […] After 18 h incubation at 37° C. (30° C. for yeasts), the antimicrobial susceptibility was monitored by measuring the change in A630 using a microplate reader (UVM 340, Asys Hitech). […] Each experiment was performed in triplicate with positive (0.7% formaldehyde) and negative (without peptide) inhibition controls.

[5] = system: Escherichia coli ATCC 25922; assay: MIC, two-fold serial dilution in microtitre plates; format: cell-based; conditions: average of three independent experiments
Description: (§1) After 18 h incubation at 37° C.

[6] = system: Acinetobacter baumannii ATCC 19606; assay: MIC, two-fold serial dilution in microtitre plates; format: cell-based
Description: as §1

[7] = system: HEK-293 cells; assay: Cytotoxicity, MTT-based microassay; format: cell-based, human; conditions: 72 h, read-out: Active Concentration (inhibitory concentration 50, IC50)
Description: HEK-293 cells were cultured in DMEM medium, and incubated at 37° C. in a humidified atmosphere of 5% CO2. Cell viability was quantified after peptide incubation using a methylthiazolyldiphenyl-tetrazolium bromide (MTT)-based microassay (Riss et al., (eds. Sittampalam, G. et al.) (Bethesda (Md.), 2004)). […] Then, 10 μl of MTT (5 mg·mL^−1 in PBS) was added to each well and the cells were further incubated for 4 h in the dark. The formazan crystals formed by mitochondrial reductases in intact cells are insoluble in aqueous solutions and precipitate. Formazan crystals were dissolved using a solubilization solution (40% dimethylformamide in 2% glacial acetic acid, 16% sodium dodecyl sulfate, pH 4.7) followed by 1 h incubation at 37° C. under shaking (150 rpm). Finally, the absorbance of the resuspended formazan was measured at 570 nm. Data were analyzed with GraphPad Prism® 5.0 software to determine the inhibitory concentration 50 (IC50), which corresponds to the peptide concentration producing 50% cell death. Results were expressed as the mean of three independent experiments performed in triplicate.

[8] = system: E. coli ATCC 25922; assay: SYTOX Green uptake assay (cytoplasmic membrane permeabilization); format: cell-based, Escherichia coli; conditions: 5 μM, positive control
Description: The guavanin 2-induced permeabilization of the bacterial cytoplasmic plasma membrane of E. coli ATCC 25922 was determined by fluorometric measurement of SYTOX green (SG) influx (Thevissen et al., Appl. Environ. Microbiol. 1999 December; 65(12): 5451-8). SG is a high-affinity nucleic acid dye that is impermeant to live cells. When the cell membrane is damaged, this dye penetrates into the cell and binds to intracellular DNA, leading to an increase in fluorescence. For SG uptake assay, exponentially growing bacteria (6×10^5 CFU·mL^−1) were re-suspended in PBS after centrifugation (1000×g, 10 min, 4° C.) and washing steps. 792 μL of the bacterial suspension was pre-incubated with 8 μL of 100 μM SG during 30 min at 37° C. in the dark. […] Three independent experiments were performed and results correspond to a representative experiment with negative (PBS) and positive (melittin) controls.

[9] = system: E. coli (ATCC 25922); assay: Membrane polarization assay with DiSC3(5); format: cell-based, Escherichia coli; conditions: melittin positive control
Description: When the cytoplasmic membrane is intact, the fluorescent probe DiSC3(5) accumulates into the cytoplasmic membrane and then aggregates, causing self-quenching of the fluorescence. In the presence of a membrane-depolarizing agent, DiSC3(5) is released into the medium, leading to an increase in fluorescence that can be monitored over time. The experiment was performed as previously described (André et al., ACS Chem. Biol. 2015 Jul. 30; 10(10): 2257-66). Briefly, exponentially growing bacteria were centrifuged (1000×g, 10 min, 4° C.), washed with PBS and re-suspended in the same buffer to an A630 of 0.1; then 700 µL of bacteria were pre-incubated with 1 μM DiSC3(5) in the dark during 10 min at 37° C., and then 100 μL of 1 mM KCl were added in order to equilibrate the cytoplasmic and external K+ concentrations. […] Three independent experiments were performed and results correspond to a representative experiment with negative (PBS) and positive (melittin) controls.

Molecule	Hemolysis [1] [µg/mL]	other results
RAYMEALRQAERLGNRTARR-NH2 [Guavanin 9]	>200	–
RSIMELYKQASRSFNRGIRR-NH2 [Guavanin 6]	>200	–
RSYYEAYERALRKGQRGIRR-NH2 [Guavanin 8]	>200	–
RRYMECYEQAERYFRRFGRR-NH2 [Guavanin 13]	>200	–
RKLMELYEQAIRYGKRSYRR-NH2 [Guavanin 12]	>200	–
H-GIGKFLHSAKKFGKAFVGEIMNS-OH [Magainin 2, reference compound]	>200	MIC [2]: 100 µg/mL
RQLMELIEQAERYGNRFYRR-NH2 [Guavanin 11]	>200	–
RQYMRYLEQAERYVNRNLRR-NH2 [Guavanin 4]	>200	–
RQYMRQIEQALRYGYRISRR-NH2 [Guavanin 2]	>200	CC50 at 1 h [3]: > 200 µM; Active Concentration (MIC) [4]: 50 µM; Active Concentration (MIC) [5]: 6.25 µM; Active Concentration (MIC) [6]: 6.25 µM; IC50 [7]: > 200 µM
RQIYESIEQALRRGYRSYRR-NH2 [Guavanin 7]	>200	–
RKLVECYERAERDANRSGRR-NH2 [Guavanin 15]	>200	–
RRGMKQYERISRDANRSYRR-NH2 [Guavanin 1]	>200	–
RSFMKCYEQASRYGNRILRR-NH2 [Guavanin 14]	>200	–
RYLMEYAEQAKRDAKRAYRR-NH2 [Guavanin 10]	>200	–
GQPVGQGVERSHDDNRNQPR-NH2 [Fragment 4]	>200	–
SSRMECYEQAERYGYGGYGG-NH2 [Fragment 1]	>200	–
RYGYGGYGGGRYGGGYGSGR-NH2 [Fragment 2]	100	Hemolysis ([1]; listed as 2nd fragment): hemolytic
CC[C@H](C)[C@H](NC(=O)CN)C(=O)NCC(=O)N[C@@H](C)C(=O)N[C@H](C(=O)N[C@@H](CC(C)C)C(=O)N[C@@H](CCCCN)C(=O)N[C@H](C(=O)N[C@@H](CC(C)C)C(=O)N[C@H](C(=O)N[C@H](C(=O)NCC(=O)N[C@@H](CC(C)C)C(=O)N1CCC[C@H]1C(=O)N[C@@H](C)C(=O)N[C@@H](CC(C)C)C(=O)N[C@H](C(=O)N[C@@H](CO)C(=O)N[C@@H](Cc1c[nH]c2ccccc12)C(=O)N[C@H](C(=O)N[C@@H](CCCCN)C(=O)N[C@@H](CCCNC(=N)N)C(=O)N[C@@H](CCCCN)C(=O)N[C@@H](CCCNC(=N)N)C(=O)N[C@@H](CCC(N)=O)C(=O)N[C@@H](CCC(N)=O)C(N)=O)[C@@H](C)CC)[C@@H](C)CC)[C@@H](C)O)[C@@H](C)O)C(C)C)C(C)C [melittin]	–	SYTOX Green (SG) fluorescence signal [8]: rapid and maximal SG fluorescence signal; DiSC3(5) fluorescence (membrane potential) [9]: rapid increase in the fluorescence signal
RKYMRQYEEAIRDGNRSIRR-NH2 [Guavanin 3]	>200	–
N=C(N)NCCC[C@H](NC(=O)CNC(=O)[C@H](CO)NC(=O)CNC(=O)[C@H](Cc1ccc(O)cc1)NC(=O)CNC(=O)CNC(=O)CNC(=O)[C@H](Cc1ccc(O)cc1)NC(=O)[C@H](CCCNC(=N)N)NC(=O)CNC(=O)CNC(=O)CNC(=O)[C@H](Cc1ccc(O)cc1)NC(=O)CNC(=O)CNC(=O)[C@H](Cc1ccc(O)cc1)NC(=O)CNC(=O)[C@@H](N)Cc1ccc(O)cc1)C(=O)NCC(N)=O [Fragment 3]	>200	–
RKLMEMYEEAFRYFNRISRR-NH2 [Guavanin 5]	>200	–
